pIC50: −log10 of the molar value. Active and inactive are the calls of the source. The calls are words filed in the database; no cut-off is given here.
Tests used:
[1] = molecular target: T1, NEDD8 activating enzyme (Homo sapiens, UniProt Q8TBC4); assay: Inhibition of NAE (unknown origin) mediated neddylation assessed as decrease in NEDD8-Ubcl2 adduct formation incubated for 2 hrs in presence of L-glutathione and ATP by HTRF assay; assay type: protein-complex assay
T1 sequence (Q8TBC4 whole entry): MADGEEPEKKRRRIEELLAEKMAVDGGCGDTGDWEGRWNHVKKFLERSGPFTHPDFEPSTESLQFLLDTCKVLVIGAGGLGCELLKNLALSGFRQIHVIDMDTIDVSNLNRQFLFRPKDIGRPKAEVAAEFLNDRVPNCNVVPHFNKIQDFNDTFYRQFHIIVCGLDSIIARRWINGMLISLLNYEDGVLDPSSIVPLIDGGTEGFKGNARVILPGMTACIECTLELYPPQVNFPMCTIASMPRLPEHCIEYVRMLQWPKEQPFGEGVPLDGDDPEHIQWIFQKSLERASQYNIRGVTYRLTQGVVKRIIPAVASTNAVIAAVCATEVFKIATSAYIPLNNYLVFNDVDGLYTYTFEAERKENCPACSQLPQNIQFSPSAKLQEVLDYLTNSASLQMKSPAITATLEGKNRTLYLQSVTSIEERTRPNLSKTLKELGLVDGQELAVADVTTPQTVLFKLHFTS
T1 sequence (Q13564 whole entry): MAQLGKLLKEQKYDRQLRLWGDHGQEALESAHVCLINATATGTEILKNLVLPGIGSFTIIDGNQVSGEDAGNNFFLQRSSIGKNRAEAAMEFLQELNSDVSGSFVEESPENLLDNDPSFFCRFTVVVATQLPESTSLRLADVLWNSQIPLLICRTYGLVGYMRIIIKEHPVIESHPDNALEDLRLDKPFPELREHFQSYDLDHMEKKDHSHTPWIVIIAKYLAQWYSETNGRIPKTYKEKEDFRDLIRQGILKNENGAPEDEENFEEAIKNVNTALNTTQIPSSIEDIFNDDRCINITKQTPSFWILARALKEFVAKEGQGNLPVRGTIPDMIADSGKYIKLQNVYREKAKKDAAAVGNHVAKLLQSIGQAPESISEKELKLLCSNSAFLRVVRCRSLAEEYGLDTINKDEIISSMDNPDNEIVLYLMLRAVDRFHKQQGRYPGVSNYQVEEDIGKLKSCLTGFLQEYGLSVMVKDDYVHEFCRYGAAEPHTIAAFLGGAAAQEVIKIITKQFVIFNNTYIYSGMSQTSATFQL

[2] = system: HCT-116; assay: Antiproliferative activity against human HCT-116 cells assessed as cell growth inhibition by sulforhodamine B assay; assay type: functional, cell-based
[3] = molecular target: Voltage-gated inwardly rectifying potassium channel KCNH2 (Homo sapiens, UniProt Q12809); assay: Inhibition of hERG channel; assay type: toxicity
[4] = Half life in Sprague-Dawley rat at 1 mg/kg, iv; assay type: ADME, organism-based; details: in vivo
[5] = AUClast in Sprague-Dawley rat at 1 mg/kg, iv; assay type: ADME, organism-based; parameters: time 0 - last, dose 1 mg/kg, route iv; details: in vivo
[6] = Observed AUCinfinity in Sprague-Dawley rat at 1 mg/kg, iv; assay type: ADME, organism-based; parameters: time infinity, dose 1 mg/kg, route iv; details: in vivo
[7] = Clearance in Sprague-Dawley rat at 1 mg/kg, iv; assay type: ADME, organism-based; details: in vivo
[8] = Observed MRTinfinity in Sprague-Dawley rat at 1 mg/kg, iv; assay type: ADME, organism-based; details: in vivo
[9] = Volume of distribution at steady state in Sprague-Dawley rat at 1 mg/kg, iv; assay type: ADME, organism-based; details: in vivo, read-out: Vdss
[10] = Inhibition of UAE (unknown origin) […] assessed as decrease in UbcH10-Ub adduct formation incubated for 2 hrs in presence of L-glutathione and ATP by HTRF assay; parameters: species or system Homo sapiens
[11] = molecular target: T2, NEDD8 activating enzyme (Homo sapiens) (UniProt Q8TBC4+Q13564); assay: Inhibition of NAE in human HCT-116 cells mediated neddylation assessed as accumulation of CDT1 incubated for 24 hrs by Western blotting analysis; assay type: cell-based; details: dose <= 1.0 µM, DDE = dose-dependent effect
[12] = molecular target: T2, NEDD8 activating enzyme (Homo sapiens); assay: Inhibition of NAE in human HCT-116 cells mediated neddylation assessed as accumulation of p27 incubated for 24 hrs by Western blotting analysis; assay type: cell-based; details: dose <= 1.0 µM, DDE = dose-dependent effect
[13] = molecular target: T2, NEDD8 activating enzyme (Homo sapiens); assay: Inhibition of NAE in human HCT-116 cells mediated neddylation assessed as accumulation of p21 incubated for 24 hrs by Western blotting analysis; assay type: cell-based; details: dose <= 1.0 µM, DDE = dose-dependent effect
[14] = molecular target: T2, NEDD8 activating enzyme (Homo sapiens); assay: Inhibition of NAE in human HCT-116 cells mediated neddylation assessed as accumulation of IkappaBalpha (Ser32/36) incubated for 24 hrs by Western blotting analysis; assay type: cell-based; details: dose <= 1.0 µM, DDE = dose-dependent effect
[15] = molecular target: T2, NEDD8 activating enzyme (Homo sapiens); assay: Inhibition of NAE in human HCT-116 cells mediated neddylation assessed as increase in CHK phosphorylation incubated for 24 hrs by Western blotting analysis; assay type: cell-based
[16] = molecular target: T2, NEDD8 activating enzyme (Homo sapiens); assay: Inhibition of NAE in human HCT-116 cells mediated neddylation assessed as accumulation of gamma-H2AX incubated for 24 hrs by Western blotting analysis; assay type: cell-based
[17] = molecular target: T2, NEDD8 activating enzyme (Homo sapiens); assay: Inhibition of NAE in human HuTu80 cells mediated neddylation assessed as accumulation of CDT1 incubated for 24 hrs by Western blotting analysis; assay type: cell-based; details: dose <= 1.0 µM, DDE = dose-dependent effect
[18] = molecular target: T2, NEDD8 activating enzyme (Homo sapiens); assay: Inhibition of NAE in human HuTu80 cells mediated neddylation assessed as accumulation of p27 incubated for 24 hrs by Western blotting analysis; assay type: cell-based; details: dose <= 1.0 µM, DDE = dose-dependent effect
[19] = molecular target: T2, NEDD8 activating enzyme (Homo sapiens); assay: Inhibition of NAE in human HuTu80 cells mediated neddylation assessed as accumulation of p21 incubated for 24 hrs by Western blotting analysis; assay type: cell-based; details: dose <= 1.0 µM, DDE = dose-dependent effect
[20] = molecular target: T2, NEDD8 activating enzyme (Homo sapiens); assay: Inhibition of NAE in human HuTu80 cells mediated neddylation assessed as accumulation of IkappaBalpha (Ser32/36) incubated for 24 hrs by Western blotting analysis; assay type: cell-based; details: dose <= 1.0 µM, DDE = dose-dependent effect
[21] = molecular target: T2, NEDD8 activating enzyme (Homo sapiens); assay: Inhibition of NAE in human HuTu80 cells mediated neddylation assessed as accumulation of gamma-H2AX incubated for 24 hrs by Western blotting analysis; assay type: cell-based
[22] = molecular target: T2, NEDD8 activating enzyme (Homo sapiens); assay: Inhibition of NAE in human HuTu80 cells mediated neddylation assessed as increase in CHK phosphorylation incubated for 24 hrs by Western blotting analysis; assay type: cell-based
[23] = system: MV4-11; assay: Antiproliferative activity against human MV4-11 cells assessed as cell growth inhibition measured after 72 hrs by SRB assay; assay type: functional, cell-based; details: MV4-11, 72 h
[24] = system: THP-1; assay: Antiproliferative activity against human THP-1 cells assessed as cell growth inhibition measured after 72 hrs by SRB assay; assay type: functional, cell-based; details: THP-1, 72 h
[25] = system: Jurkat; assay: Antiproliferative activity against human Jurkat cells assessed as cell growth inhibition measured after 72 hrs by SRB assay; assay type: functional, cell-based
[26] = system: HCT-116; assay: Antiproliferative activity against human HCT-116 cells assessed as cell growth inhibition measured after 72 hrs by SRB assay; assay type: functional, cell-based; details: HCT-116, 72 h
[27] = system: HuTu80; assay: Antiproliferative activity against human HuTu80 cells assessed as cell growth inhibition measured after 72 hrs by SRB assay; assay type: functional, cell-based; details: HuTu80, 72 h
[28] = system: RKO; assay: Antiproliferative activity against human RKO cells assessed as cell growth inhibition measured after 72 hrs by SRB assay; assay type: functional, cell-based
[29] = system: HT-29; assay: Antiproliferative activity against human HT-29 cells assessed as cell growth inhibition measured after 72 hrs by SRB assay; assay type: functional, cell-based; details: HT-29, 72 h
[30] = system: LNCaP-Clone-FGC; assay: Antiproliferative activity against human LNCaP-Clone-FGC cells assessed as cell growth inhibition measured after 72 hrs by SRB assay; assay type: functional, cell-based
[31] = system: DU-145; assay: Antiproliferative activity against human DU-145 cells assessed as cell growth inhibition measured after 72 hrs by SRB assay; assay type: functional, cell-based; details: DU-145, 72 h
[32] = system: CAPAN-1; assay: Antiproliferative activity against human CAPAN-1 cells assessed as cell growth inhibition measured after 72 hrs by SRB assay; assay type: functional, cell-based; details: CAPAN-1, 72 h
[33] = system: HCT-116; assay: Induction of cell cycle arrest in human HCT-116 cells assessed as accumulation of cells at G2/M phase incubated for 24 hrs by PI-staining-based flow cytometry; assay type: functional
[34] = system: HCT-116; assay: Induction of cell cycle arrest in human HCT-116 cells assessed as accumulation of cells at S phase at higher concentration incubated for 24 hrs by PI-staining-based flow cytometry; assay type: functional
[35] = system: HCT-116; assay: Induction of cell cycle arrest in human HCT-116 cells assessed as increase in > 4N cells at higher concentration incubated for 24 hrs by PI-staining-based flow cytometry; assay type: functional
[36] = system: HCT-116; assay: Induction of apoptosis in human HCT-116 cells assessed as increase in cleaved caspase-3 level upto 1 uM incubated for 48 hrs by Western blot analysis; assay type: functional, cell-based
[37] = system: HCT-116; assay: Induction of apoptosis in human HCT-116 cells assessed as increase in cleaved caspase-7 level upto 1 uM incubated for 48 hrs by Western blot analysis; assay type: functional, cell-based
[38] = system: HCT-116; assay: Induction of apoptosis in human HCT-116 cells assessed as increase in cleaved PARP1 level upto 1 uM incubated for 48 hrs by Western blot analysis; assay type: functional, cell-based
[39] = system: HCT-116; assay: Antitumor activity against human HCT-116 cells xenografted in nude mouse assessed as reduction in tumor growth at 130 mg/kg, sc qd for upto 18 days; assay type: functional; details: time <= 18 day
[40] = Toxicity in nude mouse xenografted with human HCT-116 cells assessed as effect on body weight at 65 to 130 mg/kg, sc qd for upto 18 days; assay type: organism-based; details: in vivo, 432 h, dose 65-130 mg/kg, time < 18 day

Voltage-gated inwardly rectifying potassium channel KCNH2, sequence (Q12809 whole entry): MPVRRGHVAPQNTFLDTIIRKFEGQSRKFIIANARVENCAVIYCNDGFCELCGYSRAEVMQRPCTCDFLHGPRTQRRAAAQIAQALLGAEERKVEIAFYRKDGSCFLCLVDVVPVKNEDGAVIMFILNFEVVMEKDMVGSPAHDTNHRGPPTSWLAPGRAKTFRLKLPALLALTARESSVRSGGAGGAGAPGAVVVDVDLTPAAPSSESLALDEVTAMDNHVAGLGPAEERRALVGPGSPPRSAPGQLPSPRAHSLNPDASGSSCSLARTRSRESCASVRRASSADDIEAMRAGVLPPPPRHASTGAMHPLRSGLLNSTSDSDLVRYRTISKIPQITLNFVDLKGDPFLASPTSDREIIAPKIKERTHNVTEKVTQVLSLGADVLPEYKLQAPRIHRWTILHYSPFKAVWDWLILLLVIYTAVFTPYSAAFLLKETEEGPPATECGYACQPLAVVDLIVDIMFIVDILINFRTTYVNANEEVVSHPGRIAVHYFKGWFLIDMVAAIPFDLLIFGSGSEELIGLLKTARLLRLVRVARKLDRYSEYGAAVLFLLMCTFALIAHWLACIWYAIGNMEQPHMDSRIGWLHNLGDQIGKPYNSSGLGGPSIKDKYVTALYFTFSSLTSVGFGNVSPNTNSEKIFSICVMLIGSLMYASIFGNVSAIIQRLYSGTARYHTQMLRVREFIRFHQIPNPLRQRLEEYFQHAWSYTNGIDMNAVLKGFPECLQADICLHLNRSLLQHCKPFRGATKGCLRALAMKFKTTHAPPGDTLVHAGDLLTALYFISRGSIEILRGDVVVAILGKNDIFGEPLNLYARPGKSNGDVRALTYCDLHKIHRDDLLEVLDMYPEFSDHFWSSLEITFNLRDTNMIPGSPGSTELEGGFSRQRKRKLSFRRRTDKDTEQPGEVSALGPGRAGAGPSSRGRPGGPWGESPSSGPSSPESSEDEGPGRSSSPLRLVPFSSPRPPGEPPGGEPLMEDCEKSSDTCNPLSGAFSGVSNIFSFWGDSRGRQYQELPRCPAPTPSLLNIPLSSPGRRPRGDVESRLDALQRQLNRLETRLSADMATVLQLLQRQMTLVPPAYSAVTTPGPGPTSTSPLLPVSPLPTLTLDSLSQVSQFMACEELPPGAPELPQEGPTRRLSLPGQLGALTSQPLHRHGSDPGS

With COC(=O)N1CCC2(CC1)C[C@H](Nc1ncnc3c1nnn3[C@@H]1C[C@@H](COS(N)(=O)=O)[C@@H](O)C1)c1ccccc12 as the molecule, how does the pIC50 [1] read?
The pIC50 was 9.26.

What about the pIC50 [2] of the same molecule?
The pIC50 was 7.44.

And the pIC50 [3]?
Its pIC50 is less than 4.40.

What about the half-life [4] of the same molecule?
The half-life was 42.6 min.

And the AUC(0-t) [5]?
Its AUC(0-t) is 560 ng·h/mL.

And the AUC(0-inf) [6]?
The AUC(0-inf) was 563 ng·h/mL.

And the clearance [7]?
The clearance was 29.7 mL/min/kg.

What about the MRT inf [8] of the same molecule?
The MRT inf was 60 min.

What about the Vd [9] of the same molecule?
Its Vd is 1.78 L/kg.

And the pIC50 [10]?
The pIC50 was 7.17.

What about the inhibition [11] of the same molecule?
Its inhibition is “Dde”.

What about the inhibition [12] of the same molecule?
Its inhibition is “Dde”.

What about the inhibition [13] of the same molecule?
The inhibition was “Dde”.

What about the inhibition [14] of the same molecule?
Its inhibition is “Dde”.

What about the inhibition [15] of the same molecule?
The inhibition was “Active”.

And the inhibition [16]?
Its inhibition is “Active”.

And the inhibition [17]?
Its inhibition is “Dde”.

And the inhibition [18]?
Its inhibition is “Dde”.

What about the inhibition [19] of the same molecule?
Its inhibition is “Dde”.

And the inhibition [20]?
The inhibition was “Dde”.

And the inhibition [21]?
Its inhibition is “Active”.

What about the inhibition [22] of the same molecule?
The inhibition was “Active”.

And the pIC50 [23]?
The pIC50 was 6.97.

And the pIC50 [24]?
The pIC50 was 6.45.

And the pIC50 [25]?
Its pIC50 is 6.32.

And the pIC50 [26]?
The pIC50 was 7.47.

And the pIC50 [27]?
The pIC50 was 7.40.

And the pIC50 [28]?
The pIC50 was 6.54.

What about the pIC50 [29] of the same molecule?
The pIC50 was 6.39.

What about the pIC50 [30] of the same molecule?
Its pIC50 is 6.58.

What about the pIC50 [31] of the same molecule?
Its pIC50 is 6.32.

What about the pIC50 [32] of the same molecule?
The pIC50 was 7.00.

And the Activity [33]?
The Activity was “Active”.

What about the Activity [34] of the same molecule?
Its Activity is “Active”.

And the Activity [35]?
The Activity was “Active”.

And the Activity [36]?
The Activity was “Active”.

And the Activity [37]?
Its Activity is “Active”.

And the Activity [38]?
The Activity was “Active”.

And the T/C [39]?
Its T/C is 0.19.

What about the Activity [40] of the same molecule?
Its Activity is “Non-Toxic”.
